Experimental data as given in US10104889B2 (priority 2011, dated 2018).
Where two headings read alike, the source gives them in different places.

Key:
Format in all cases: in vivo
Phytophthora parasitica = assay: Control of disease in tobacco plants inoculated with Phytophthora parasitica; conditions: 1 μM spray every 15 days for 3 months; for percentage of mortality due to disease: mortality at 3 months
Protocol: (§1) In order to evaluate the effect of the brassinosteroid analogue (25R)-3-hydroxy-C-homo-11-oxa-5-espirostan-12-one and a natural brassinosteroid (brassinolide), on the control of other plant diseases, experiments were conducted with tobacco and tomato plants inoculated with Phytophthora parasitica and Alternaria solani, respectively. Both the natural brassinosteroid as the analogue were applied by spraying at a concentration of 1 μM every 15 days for 3 months. The mortality rate was determined at 3 months. […] Hundred plants were used for each treatment. Untreated plants were used as controls.

Alternaria solani = assay: Control of disease in tomato plants inoculated with Alternaria solani; conditions: 1 μM spray every 15 days for 3 months; for percentage of mortality due to disease: mortality at 3 months
Protocol: as §1

[1] = system: Candidatus ‘Liberibacter asiaticus’; conditions: for effect on bacteria levels during the evaluation period: 1 μM spray every 15 days for 6 months, 10 HLB infected citrus plants, FIG. 5
[2] = system: Candidatus ‘Liberibacter asiaticus’; conditions: 1 μM spray twice a month, area with HLB plants and Diaphorina citri, FIG. 7
[3] = system: Candidatus ‘Liberibacter asiaticus’; conditions: HLB infected Citrus sinensis treated for one year, FIG. 4A
[4] = system: genes related to the natural defense mechanism of plants against diseases; assay: Identification of new defense genes activated in treated citrus plants by SuperSAGE; conditions: Citrus sinensis, 20 μM spray, leaves 1-48 hours, FIG. 2
Protocol: Citrus plants (Citrus sinensis) were treated with the brassinosteroid analogue (25R)-3-hydroxy-C-homo-11-oxa-5-espirostan-12-one at 20 μM. Leaves from five plants were collected at 1, 5, 10, 24 and 48 hours after spray application. Total RNA was extracted from leaves using the RNeasy kit (Qiagen, Valencia, Calif.) according to manufacturer's instructions. The cDNAs were synthesized by using biotinylated oligo-dT primer and reverse transcription kit SuperScript III (Invitrogen, Carlsbad, Calif.) according to manufacturer's instructions. Samples of five citrus plants treated with water and collected during the times listed above were used as control. The identification and characterization of new genes was performed by the construction of two cDNA libraries by the technique of SuperSAGE (Matsumura et al. (2003) PNAS 100: 15718-15723). The control library was the mixture of leaves of plants treated with water at different times and target sample was the mixture of citrus plant leaves treated with the analogue at different times. The new genes related to plant response to the HLB, activated by application of brassinosteroid analogue, were isolated, sequenced and analyzed.

[5] = system: Candidatus ‘Liberibacter asiaticus’; conditions: adult plants, natural conditions, 20 mM spray every 15 days, one year, FIG. 3B
[6] = system: genes related to defense against diseases of citrus plants; assay: Relative expression of defense-related genes in citrus plants by real-time quantitative PCR; conditions: Citrus sinensis, 20 μM spray
Protocol: Citrus plants (Citrus sinensis) were treated with the brassinosteroid analogue (25R)-3-hydroxy-C-homo-11-oxa-5-espirostan-12-one at 20 μM (Iglesias et al. (1998) Synthetic Communications 28: 75-81). Leaves from five plants were collected at 0, 1, 5, 10, 24 and 48 hours after spray application. Total RNA was extracted from leaves using the RNeasy kit (Qiagen, Valencia, Calif.) according to manufacturer's instructions, which includes a DNase treatment. The cDNAs were synthesized by using oligo-dT primer and reverse transcription kit SuperScript III (Invitrogen, Carlsbad, Calif.) according to manufacturer's instructions. The real-time quantitative PCR was performed using a RotorGene 3000 PCR machine (Corbett, Australia) and QuantiTect SYBR Green PCR kit (Qiagen). The reaction conditions in real-time PCR were: an initial denaturation step at 95° C. for 15 min. followed by denaturation at 95° C. for 15 s, an alignment step for 30 s at 60° C. and an extension step for 30 s at 72° C. for 40 cycles. The analysis was carried out using the RotorGene 3000 software (Corbett, Australia) and five replicates were used for each sample. Experiments were repeated twice.

[7] = greenhouse, Citrus sinensis with HLB, 20 μM spray every 15 days, 6 months, FIG. 3A

**Q.** Which results are given for CC(C)[C@H](C)[C@@H](O)[C@H](O)[C@@H](C)[C@H]1CC[C@H]2[C@@H]3COC(=O)[C@H]4C[C@H](O)[C@H](O)C[C@]4(C)[C@H]3CC[C@]12C [brassinolide, reference compound]?
**A.** effect on incidence of disease (Phytophthora parasitica): marked effect in reducing the incidence of diseases; percentage of mortality due to disease (Phytophthora parasitica): 13 percentage; effect on incidence of disease (Alternaria solani): marked effect in reducing the incidence of diseases; percentage of mortality due to disease (Alternaria solani): 12 percentage; effect on bacteria levels during the evaluation period [1]: significant reduction in bacteria levels

**Q.** Which results are given for C[C@@H]1CC[C@@]2(OC1)O[C@H]1C[C@H]3[C@@H]4CC[C@H]5CC(O)CC[C@]5(C)[C@H]4OC(=O)C[C@]3(C)[C@H]1[C@@H]2C (stereo partly drawn) [brassinosteroid analogue, (25R)-3-hydroxy-C-homo-11-oxa-5-espirostan-12-one]?
**A.** protection of citrus plants without HLB against infection [2]: protect them against infection from bacteria; presence of bacteria in leaves by electron microscopy [3]: presence of bacteria was not observed; effect on incidence of disease (Phytophthora parasitica): marked effect in reducing the incidence of diseases; percentage of mortality due to disease (Phytophthora parasitica): 11 percentage; activation of new genes identified by SuperSAGE [4]: simultaneously activates genes related to hypersensitive response, salicylic acid and jasmonic acid/ethylene; effect on incidence of disease (Alternaria solani): marked effect in reducing the incidence of diseases; percentage of mortality due to disease (Alternaria solani): 9 percentage; significant reduction in bacteria levels, from [5]: third months; undetectable levels of bacteria reached from months [5]: 8 months; Absolute concentration of the bacterium after 6 months of treatment ([1]; 0.001 μM, spray every 15 days for 6 months): 522 Copies of the bacteria by reaction; Absolute concentration of the bacterium after 6 months of treatment ([1]; 0.01 μM, spray every 15 days for 6 months): 29 Copies of the bacteria by reaction; effect on bacteria levels during the evaluation period [1]: significant reduction in bacteria levels; levels of bacteria, application two times a month and weekly compared with a single application per month ([1]; 1 μM, FIG. 6): significantly reduced levels of bacteria, more early; Absolute concentration of the bacterium after 6 months of treatment ([1]; 1 μM, spray every 15 days for 6 months): 1 Copies of the bacteria by reaction; Absolute concentration of the bacterium after 6 months of treatment ([1]; 5 μM, spray every 15 days for 6 months): 0 Copies of the bacteria by reaction; Absolute concentration of the bacterium after 6 months of treatment ([1]; 10 μM, spray every 15 days for 6 months): 0 Copies of the bacteria by reaction; Absolute concentration of the bacterium after 6 months of treatment ([1]; 20 μM, spray every 15 days for 6 months): 0 Copies of the bacteria by reaction; Absolute concentration of the bacterium after 6 months of treatment ([1]; 40 μM, spray every 15 days for 6 months): 0 Copies of the bacteria by reaction; Absolute concentration of the bacterium after 6 months of treatment ([1]; 60 μM, spray every 15 days for 6 months): 0 Copies of the bacteria by reaction; bacteria levels ([1]; concentrations of 0.01 and up to 60 μM, spray every 15 days for 6 months): drastically reduced; significant reduction in levels of bacteria, from [1, 7]: second month; undetectable levels of bacteria reached from month [1, 7]: 4 month; time of highest expression of the rest of the genes ([6]; after application): 5 h; time of highest level of expression of allene oxide synthase gene ([6]; after application): 24 h; activation of all analyzed genes (chitinase, β-1,3-glucanase, glutathione peroxidase, phenylalanine-ammonia lyase, superoxide dismutase, allene oxide synthase) ([6]; leaves 0-48 hours, FIG. 1): activated
